Source: US9708628B2, “Cationic lipid having improved intracellular kinetics” (NOF CORPORATION, priority 2011, dated 2017)

Tests used:
[1] = Particle size and surface potential of siRNA MENDs prepared by t-BuOH injecting method; format: physicochemical; conditions: siRNA MEND, cationic lipid/cholesterol=70/30, DMG-PEG2000 3%
Procedure: (§1) A lipid solution in t-BuOH with a composition of cationic lipid/cholesterol=70/30, DMG-PEG2000 3% and a total lipid amount of 3000 nmol/400 μL (7.5 mM) was prepared in a 1.7 mL tube. In a separate 1.7 mL tube, an siRNA solution was prepared by mixing an siRNA aqueous solution containing siRNA (160 μg) and 20 mM malate buffer (pH 4.00, 30 mM NaCl) to total 50 μL. With vigorous stirring of the lipid solution, the siRNA solution was gradually added dropwise, and the mixed solution was taken in a 1 mL syringe. Then, 20 mM malate buffer (pH 4.00, 30 mM NaCl, 2 mL) was added into a 5 mL tube, and the mixed solution was gradually injected with vigorous stirring. Thereafter, the mixture was further diluted with PBS (7 mL) and centrifuged at 1000 g, 30° C. for 10 min in Amicon Ultra-15-100K to a volume of less than 1.5 mL. PBS (15 mL) was added, and the solution was centrifuged again to about 500-1000 μL. Finally, the MEND solution was adjusted by diluting with PBS to the object lipid concentration.
The particle size and surface potential of various MENDs were measured according to the method described in [Experimental Example 2] and the results are shown in Table 6.

Factor VII (FVII) [2] = assay: Knockdown effect of siRNA-encapsulated MEND prepared by t-BuOH injecting method; format: in vivo, ICR mice; conditions: varying doses of siRNA, tail vein
Procedure: A MEND solution prepared by the method shown in [Experimental Example 28] was administered to 4-week-old male ICR mice at 3 mg siRNA/kg from the tail vein, and blood was collected 24 hr later. This blood sample was centrifuged at 1000 g, 10 min, 4° C., and the supernatant was recovered to obtain plasma. The amount of Factor VII (FVII) in the plasma was quantified by BIOPHEN FVII CHROMOGENIC ASSAY (HYPHEN BioMed).
as §1
MENDs prepared by the method shown in Experimental Example 32 were administered by a method similar to the method shown in Experimental Example 30 with varying doses of siRNA, and the knockdown effect was evaluated. The results are shown in FIG. 35, FIG. 36, and FIG. 37.

Factor VII (FVII) [3] = assay: Knockdown effect of chemically-modified siRNA-encapsulated MEND; format: in vivo, ICR mice
Procedure: A MEND (Lipid/siRNA ratio=250) prepared using the compound of Example 13 and by the method shown in Experimental Example 32, and a MEND having the ratio of lipid and siRNA of Lipid/siRNA ratio=2250 were prepared. Furthermore, of Lipid/siRNA ratio=2250, MENDs wherein siRNA was replaced by chemically-modified one (2′-F) were prepared, and the knockdown effect was evaluated by the method shown in Experimental Example 33.

SMILES | PDI [1] | size (nm) [1] [nm] | zeta (mV) [1] [mV] | FVII expression level (knockdown effect) (Factor VII (FVII) [2]) | knockdown effect with chemically-modified siRNA (2′-F) (Factor VII (FVII) [3]; Lipid/siRNA ratio=2250) | knockdown effect, Lipid/siRNA ratio 2250 versus 250 (Factor VII (FVII) [3]; unmodified siRNA)
Cc1c(C)c2c(c(C)c1OC(=O)CCC(=O)OCCCCC1CCN(CCSSCCN3CCC(CCCCOC(=O)CCC(=O)Oc4c(C)c(C)c5c(c4C)CCC(C)(CCCC(C)CCCC(C)CCCC(C)C)O5)CC3)CC1)CCC(C)(CCCC(C)CCCC(C)CCCC(C)C)O2 (stereo not shown) [TS-P4C4] | 0.11 | 123 | −6.9 | highest knockdown effect | further enhanced the knockdown effect | knockdown effect was enhanced
Cc1c(C)c2c(c(C)c1OC(=O)CCC(=O)OCC1CCN(CCSSCCN3CCC(COC(=O)CCC(=O)Oc4c(C)c(C)c5c(c4C)CCC(C)(CCCC(C)CCCC(C)CCCC(C)C)O5)CC3)CC1)CCC(C)(CCCC(C)CCCC(C)CCCC(C)C)O2 (stereo not shown) [TS-P4C1] | 0.13 | 113 | −11.9 | highest knockdown effect | – | –
